Test results from patent US20240083853A1, “HSD17B13 INHIBITORS AND USES THEREOF” (FL2022-001, Inc., priority 2020, published 2024).
pIC50: −log10 of the molar value.

Molecular target: T1, Recombinant human HSD17B13 enzyme (Homo sapiens, UniProt Q7Z5P4)
T1 sequence (Q7Z5P4 20-300): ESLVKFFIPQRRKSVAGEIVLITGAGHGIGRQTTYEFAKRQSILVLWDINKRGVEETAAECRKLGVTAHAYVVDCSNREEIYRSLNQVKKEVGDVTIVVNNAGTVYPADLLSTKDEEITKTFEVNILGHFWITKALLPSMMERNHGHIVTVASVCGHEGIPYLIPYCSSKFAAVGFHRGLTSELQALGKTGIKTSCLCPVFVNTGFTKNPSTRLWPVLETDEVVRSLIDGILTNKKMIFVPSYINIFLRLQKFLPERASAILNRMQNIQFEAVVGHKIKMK
Test: HSD17b13 NAD(P)H-Glo biochemical assay
Details: 50 uM estradiol, 1 mM NAD+, NAD(P)H-Glo luminescence; read-out: HSD17β13 IC50
Procedure, shortened: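 Luminescent NAD(P)H-Glo read-out, taken after 1 hour at RT, measured cofactor reduction. Substrate and cofactor were estradiol at 50 uM and NAD+ at 1 mM final, reacted with the recombinant human enzyme for 3 hours at 37° C in 20 mM Tris pH7.4, 0.002% Tween-20, 0.02% BSA. Compound was pre-incubated with enzyme for 20 minutes at RT.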

CS(=O)(=O)N1CCN(c2ccc(-n3nnc4cc(F)c(O)c(F)c43)cn2)CC1 [Compound 26.13, 5,7-Difluoro-1-(6-(4-(methylsulfonyl)piperazin-1-yl)pyridin-3-yl)-1H-benzo[d][1,2,3]triazol-6-ol]
pIC50: 6.00 to 7.00

CC1(C)CCN(c2ccc(-n3ncc4cc(F)c(O)c(C#N)c43)cc2)CC1 [Compound 26.10, 1-(4-(4,4-Dimethylpiperidin-1-yl)phenyl)-5-fluoro-6-hydroxy-1H-indazole-7-carbonitrile]
pIC50: 6.00 to 7.00

CC1(C)CCN(c2ccc(N3C(=O)Cc4cc(F)c(O)c(F)c43)cc2)CC1 [Compound 33, 1-(4-(4,4-Dimethylpiperidin-1-yl)phenyl)-5,7-difluoro-6-hydroxyindolin-2-one]
pIC50: 6.00 to 7.00
